Assay results as given in patent US20150141473A1, “PHARMACEUTICAL DOSAGE FORMS OF TIZANIDINE AND ADMINISTRATION ROUTES THEREOF” (priority 2012, published 2015).
Counter-ions that a name gives are not always drawn.

Key:
[1] = background, cited from earlier work
[2] = rabbits, 3.00 mg/kg of tizanidine hydrochloride, preliminary
[3] = animal data, local administration; cited from earlier work
[4] = pH of the formulations / aqueous solutions; assay type: physicochemical; settings: aqueous solutions without buffer
[5] = highest concentration, 14 days of treatment tid in rabbits
[6] = aqueous solution 45.00 mg/mL, pH 4.8
Experimental: The proposed formulations are calculated for a single puff of 50 μL/nostril.

[7] = Human absorption: Tizaspray intranasally vs Sirdalud tablets, randomised cross-over, plasma levels of tizanidine by LC/MS/MS over 12 hours; settings: highest concentration, single administration in humans
Experimental: The plasma levels of tizanidine were determined by LC/MS/MS over 12 hours from the administration.
R=Sirdalud tablet; T1=1*70 μL/puff by intranasal route; T2=2*70 μL/puff by intranasal route.

Row | Compound | absorption by oral route ([1]; 2 or 4 mg tablets) | T1/2z ([1]; known pharmacokinetic profile) [h] | Tmax ([1]; known pharmacokinetic profile) [h] | first-pass effect ([1]; oral route) | bioavailability by intranasal route ([2]; IN vs IM) | intranasal absorption ([2]; IN, without any enhancer) | activity compared with clonidine [3] | pH of aqueous solutions [4] | tolerability on the nasal mucosa [5] | tolerability on the nasal mucosa (redness or pain) [6] | absorption by intranasal route [7]
1 | Clc1ccc2nsnc2c1NC1=NCCN1 [Tizanidine, 5-chloro-N-(4,5-dihydro-1H-imidazol-2-yl)-2,1,3-benzothia-diazol-4-amine] | well and rapidly absorbed by oral route | 1 to 2 | 1 to 2 | extensive first-pass effect | close to that of intramuscular route (IM) | rapidly absorbed | equivalent activity of tizanidine and clonidine |  |  |  | 
2 | Clc1ccc2nsnc2c1NC1=NCCN1 [tizanidine hydrochloride] |  |  |  |  |  |  |  | 4.8 | well tolerated on the nasal mucosa | tolerated by the nasal mucosa without any local side effect | rapidly and completely absorbed
